# Patent US11364264B2, “Ex vivo antigen-presenting cells or activated CD-positive T cells for treatment of cancer” (priority 2016, dated 2022)
# Like-named read-outs stand apart in the source and are kept apart here.
# Tests used:
# [1] = tested on: AE17 mouse mesothelioma cell line; assay: Ex vivo restimulation with recombinant mesothelin, intracellular IFN-γ in CD8+ T cells, AE17 mice; details: restimulated with recombinant mesothelin ex vivo
# [2] = tested on: Luc-AE17 mesothelioma cancer cells; assay: Luc-AE17 mesothelioma model, survival (Example 4); format: in vivo, mouse; details: VIC-008 20 μg and/or AMD3100 1 μg/g body weight once a week for four weeks
# [3] = tested on: 40L mouse mesothelioma cell line; assay: Immune profiling by flow cytometry of tissues from 40L tumor-bearing mice; format: in vivo; details: for Proportion of CD8+ T cells in total live cells compared to saline: one week after last treatment
# [4] = tested on: AE17 mouse mesothelioma cell line; format: in vivo; details: for Proportion of CD8+ T cells in total live cells compared to saline: one week after last treatment
# [5] = tested on: Luc-40L mesothelioma cancer cells; assay: Luc-40L mesothelioma model, survival (Example 4); format: in vivo, mouse; details: VIC-008 20 μg and/or AMD3100 1 μg/g body weight once a week for four weeks
# [6] = tested on: GFP-Foxp3 expressing CD4+ splenocytes (Treg cells); details: AMD3100 5 μg/ml, 24 hours
# [7] = tested on: 40L mouse mesothelioma cell line; assay: Ex vivo restimulation with recombinant mesothelin, intracellular IFN-γ in CD8+ T cells, 40L mice; details: splenic CD8+ T cells, restimulated with recombinant mesothelin ex vivo
# [8] = tested on: AE17 mouse mesothelioma cell line; assay: AE17 intraperitoneal malignant mesothelioma model: tumor weight and survival (Example 5); format: in vivo; details: VIC-008 20 μg per mouse, AMD3100 1 mg/kg i.p. weekly x4
# [9] = tested on: 40L mouse mesothelioma cell line; assay: 40L intraperitoneal malignant mesothelioma model: tumor weight and survival (Example 5); format: in vivo; details: VIC-008 20 μg per mouse, AMD3100 1 mg/kg i.p. weekly x4
compound,measurement,setting,value
c1cc(CN2CCCNCCNCCCNCC2)ccc1CN1CCCNCCNCCCNCC1 [AMD3100],Mesothelin-specific IFN-γ expression in CD8+ T cells compared to saline,[1]; lymph node CD8+ T cells,did not enhance
same,Mesothelin-specific IFN-γ expression in CD8+ T cells compared to saline,[1]; splenic CD8+ T cells,did not enhance
same,Survival of tumor-bearing mice compared to saline,[2],slight effect on survival
same,Proportion of PD-1-expressing CD8+ T cells compared to saline,[3]; spleens,significantly fewer
same,Proportions of Treg cells,[3]; spleens,did not alter
same,Proportion of CD8+ T cells in total live cells compared to saline,[3]; spleens,did not increase
same,IL-2+ CD40L+ cells among the Foxp3+ CD25− Treg population,[3]; tumors,significantly more cells
same,Proportion of PD-1-expressing CD8+ T cells compared to saline,[3]; tumors,significantly fewer
same,Proportions of Treg in tumors compared to saline,[3]; tumors,significantly decreased
same,Ratio of CD8+ T cells to Treg in tumors compared to saline,[3]; tumors,increased
same,Ratio of CD25− cells to CD25+ cells within the Foxp3+ population,[3]; tumors,significantly increased
same,Proportion of CD8+ T cells in total live cells compared to saline,[3]; tumors,did not increase
same,Cell ratio of CD8+ T cells to Treg cells compared to saline,[4]; lymph nodes,significantly increased
same,IL-2+ CD40L+ cells among the Foxp3+ CD25− Treg population,[4]; lymph nodes,significantly more cells
same,Proportion of PD-1-expressing CD8+ T cells compared to saline,[4]; lymph nodes,significantly fewer
same,Ratio of CD25− cells to CD25+ cells within the Foxp3+ population,[4]; lymph nodes,significantly increased
same,Treg in the lymph nodes,[4]; lymph nodes,generally reduced
same,Proportion of CD8+ T cells in total live cells compared to saline,[4]; lymph nodes,did not increase
same,Proportion of PD-1-expressing CD8+ T cells compared to saline,[4]; spleens,significantly fewer
same,Proportion of CD8+ T cells in total live cells compared to saline,[4]; spleens,did not increase
same,Proportion of PD-1-expressing CD8+ T cells compared to saline,[4]; tumors,significantly fewer
same,Proportions of Treg in tumors compared to saline,[4]; tumors,significantly decreased
same,Ratio of CD8+ T cells to Treg in tumors compared to saline,[4]; tumors,increased
same,Proportion of CD8+ T cells in total live cells compared to saline,[4]; tumors,did not increase
same,Survival of tumor-bearing mice compared to saline,[5],slight effect on survival
same,Ratio of the proportion of CD25− cells to CD25+ cells in the Foxp3+ CD4+ population,[6]; no anti-CD3/CD28 stimulation,did not change
same,Conversion of Foxp3+ CD25− Treg into IL-2+ CD40L+ cells,"[6]; with anti-CD3/CD28 antibodies (1 μg/ml), P=0.0015",converted more
same,Ratio of the proportion of CD25− cells to CD25+ cells in the Foxp3+ CD4+ population,"[6]; with anti-CD3/CD28 antibodies (1 μg/ml), P=0.0017",significantly increased
same,Mesothelin-specific IFN-γ expression in CD8+ T cells compared to saline,[7],did not enhance
same,Animal survival compared to saline,[8],only modest benefit to survival
same,Animal survival compared to saline,[9],only modest benefit to survival
